Biological target: T1, Glucan Synthase of Candida albicans (Candida albicans, UniProt O13428)
T1 construct: endogenous in cells
Experiment: Inhibition of the Glucan Synthase of Candida albicans (14C-UDP glucose incorporation, membrane proteins)
Format: biochemical
Conditions: Candida albicans membranes, 25° C., 1 hour, radioactivity counted
Protocol: A—Inhibition of the Glucan Synthase of Candida albicans.
Candida albicans membranes were purified according to the process described by Tang et al Antimicrob. Agents Chemother 35, 99–103, 1991. 22.5 μg of membrane proteins are incubated in a mixture of 2 Mm of 14C-UDP glucose (specific activity=0.34 mCi./mmol, 50 μg of α-amylase, 1 Mm of dithiotreitol (DTT), 1 Mm EDTA, 100 Mm NaF, 7 μM of GTP-γ-S, 1M of sucrose and 50 Mm of Tris-HCL (pH 7.8) in a volume of 100 μl. The medium is incubated at 25° C. for 1 hour and the reaction is terminated by adding TCA at a final concentration of 5%. The reaction mixture is transferred onto a pre-humidified glass fibre filter. The filter is washed, dried and its radioactivity is counted. Mulundocandine is used as a positive control. Control of the vehicle is carried out with the same quantity of 1% DMSO. […] The enzyme is prepared according to the process of Beaulieu et al.(Antimicrob. Agents Chemother 38, 937–944, 1994. The protocol used is identical to the protocol described above for the enzyme of Candida albicans except that dithiotreitol is not used in the reaction mixture.

T1 sequence (O13428 1-1897): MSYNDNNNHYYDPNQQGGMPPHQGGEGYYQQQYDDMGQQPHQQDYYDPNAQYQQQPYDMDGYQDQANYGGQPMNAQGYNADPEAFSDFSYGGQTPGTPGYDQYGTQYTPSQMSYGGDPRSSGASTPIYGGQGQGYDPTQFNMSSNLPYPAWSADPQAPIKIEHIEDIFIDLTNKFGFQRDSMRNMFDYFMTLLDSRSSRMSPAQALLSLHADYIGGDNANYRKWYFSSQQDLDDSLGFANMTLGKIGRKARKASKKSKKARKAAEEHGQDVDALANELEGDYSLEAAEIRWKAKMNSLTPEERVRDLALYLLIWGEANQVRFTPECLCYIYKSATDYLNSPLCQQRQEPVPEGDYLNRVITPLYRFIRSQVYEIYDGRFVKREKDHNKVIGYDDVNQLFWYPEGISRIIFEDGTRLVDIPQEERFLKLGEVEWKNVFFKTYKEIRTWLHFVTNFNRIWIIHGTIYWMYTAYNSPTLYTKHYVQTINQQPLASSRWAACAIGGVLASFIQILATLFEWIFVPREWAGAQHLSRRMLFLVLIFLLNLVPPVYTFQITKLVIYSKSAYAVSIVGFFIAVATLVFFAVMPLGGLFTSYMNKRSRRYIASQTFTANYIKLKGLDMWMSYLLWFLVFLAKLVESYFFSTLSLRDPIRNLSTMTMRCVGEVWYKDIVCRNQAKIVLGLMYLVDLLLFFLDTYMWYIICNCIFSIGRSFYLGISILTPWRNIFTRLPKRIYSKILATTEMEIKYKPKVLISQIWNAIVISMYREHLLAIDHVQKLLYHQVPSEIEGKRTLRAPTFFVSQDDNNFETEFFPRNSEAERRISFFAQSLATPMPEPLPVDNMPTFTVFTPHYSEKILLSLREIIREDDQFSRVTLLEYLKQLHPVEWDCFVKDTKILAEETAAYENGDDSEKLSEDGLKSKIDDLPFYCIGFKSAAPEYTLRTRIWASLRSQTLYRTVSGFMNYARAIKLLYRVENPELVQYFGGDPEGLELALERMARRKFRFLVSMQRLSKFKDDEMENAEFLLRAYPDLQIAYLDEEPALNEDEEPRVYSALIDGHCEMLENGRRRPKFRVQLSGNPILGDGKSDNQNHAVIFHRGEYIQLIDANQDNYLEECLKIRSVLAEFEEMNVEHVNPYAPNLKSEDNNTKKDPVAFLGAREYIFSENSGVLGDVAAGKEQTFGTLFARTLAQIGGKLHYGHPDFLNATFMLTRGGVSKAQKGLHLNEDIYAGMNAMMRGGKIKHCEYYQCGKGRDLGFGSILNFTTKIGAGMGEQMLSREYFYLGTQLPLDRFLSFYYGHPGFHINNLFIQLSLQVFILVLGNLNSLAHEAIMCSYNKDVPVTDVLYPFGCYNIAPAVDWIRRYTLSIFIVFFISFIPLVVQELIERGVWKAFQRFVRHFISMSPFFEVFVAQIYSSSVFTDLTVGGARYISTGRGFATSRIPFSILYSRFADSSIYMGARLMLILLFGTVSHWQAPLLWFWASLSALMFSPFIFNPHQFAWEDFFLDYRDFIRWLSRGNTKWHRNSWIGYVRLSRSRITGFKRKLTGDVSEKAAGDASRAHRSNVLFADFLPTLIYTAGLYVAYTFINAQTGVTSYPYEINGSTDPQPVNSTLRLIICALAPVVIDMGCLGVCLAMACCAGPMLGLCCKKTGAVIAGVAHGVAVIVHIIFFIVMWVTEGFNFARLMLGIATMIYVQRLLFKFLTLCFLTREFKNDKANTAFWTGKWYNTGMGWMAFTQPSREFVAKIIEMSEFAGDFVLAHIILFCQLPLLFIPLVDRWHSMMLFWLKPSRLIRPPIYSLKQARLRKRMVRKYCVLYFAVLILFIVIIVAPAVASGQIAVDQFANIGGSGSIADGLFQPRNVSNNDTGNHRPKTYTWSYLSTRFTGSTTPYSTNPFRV
T1 sequence (O42825 1-195 partner limits assumed): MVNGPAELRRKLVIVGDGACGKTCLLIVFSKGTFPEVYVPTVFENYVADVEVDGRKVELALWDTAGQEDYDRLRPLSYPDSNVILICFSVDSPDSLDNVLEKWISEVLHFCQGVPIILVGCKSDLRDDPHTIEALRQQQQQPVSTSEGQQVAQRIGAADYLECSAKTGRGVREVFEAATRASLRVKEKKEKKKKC

With “Trans 1-[4-[(2-aminocyclo-hexyl)-amino]-N2-[[4″-(pentyloxy) [1,1′:4′,1″-terphenyl]-4-yl]-carbonyl]-L-ornithine]-4-[4-(4-hydroxyphenyl)-L-threonine]-5-L-serine-echinocandine B trifluoroacetate (isomer A) [Example 3 isomer A]” the “Inhibition of the glucan synthase of Candida albicans” value was “good activity”.

— patent publication US7022669B1, “Echinocandin derivatives, method for preparing same and application as antifungal agents” (Aventis Pharma S.A., priority 1999, dated 2006)
